Assay results: patent EP3415523A1, “COMBINATION MEDICAMENT COMPRISING A PRODRUG AND INHALABLE CATALYST” (priority 2017, dated 2018)

Tests used:
mammalian cells = settings: in vitro test on mammalian cells; cited from earlier work
A549 cells [1] = assay: EC50 experiments, dose response of cell viability (PrestoBlue); format: cell-based; settings: 3 days of treatment, prodrug versus its deprotected counterpart (gemcitabine)
Protocol: A549 cells were seeded in 96-well plates at a cell concentration of 2,000 cells/well and incubated overnight before treatment. Each well was then replaced with 100 µL of fresh F-12K medium containing protected gemcitabine (concentration ranging from 10^4 µM to 10^-4 µM) and DMSO (2% v/v), control wells were replaced with 100 µL of fresh F-12K medium and DMSO (2% v/v). Control and treated plates were incubated for 72 h before PrestoBlue cell viability reagent (10% v/v) was added to each well and the plate incubated for 2 h. Fluorescence emission was measured using a microplate reader (Tecan; ex: 540 nm; em: 590 nm).
Dose-response experiments were performed in order to determine the half maximal effective concentration (EC50) of both the drug as well as the prodrug.

A549 cells [2] = assay: Extracellular prodrug activation, viability assay (PrestoBlue); format: cell-based; settings: 0.05 µM; for viability: 3 days
Protocol: A549 cells were seeded in 96-well plates at a cell concentration of 4,000 cells/well and incubated overnight before treatment. Each well was then replaced with 100 µL of fresh F-12K medium containing protected gemcitabine (0.05 µM) and DMSO (2% v/v), control wells were replaced with 100 µL of fresh F-12K medium and DMSO (2% v/v). Plates were incubated for 1 h before 10 µL of a platinum nanoparticles solution (50 ppm, 3 nm diameter) was added to each well and 10 µL of water was added to control wells. Plates were incubated for 1 h before placing them in a custom-designed gas chamber. Control plates were left untouched in the incubator. The chamber was placed in the incubator, connected to a gas bottle outside the incubator and to an outlet. The gas chamber was flushed for 1 min with hydrogen gas at 1 bar and closed. Plates were incubated 2 h in the gas chamber before placing them back in the incubator with the control plates. Control and treated plates were incubated for 72 h before PrestoBlue cell viability reagent (10% v/v) was added to each well and the plate incubated for 2 h. Fluorescence emission was measured using a microplate reader (Tecan; ex: 540 nm; em: 590 nm).
This could be due to a constitutively occurring slow reduction of the nitro group by the cells. […] Although this would require further investigations, it could be a consequence of the increased lipophilicity of the protected drug thereby conferring an increased uptake of the drug with respect to its deprotected counterpart.

Structure (SMILES) | mutagenic / genotoxic (mammalian cells) | difference of EC50 values of drug and prodrug (A549 cells [1]) | viability (A549 cells [2]; both hydrogen and platinum present, compared with positive control gemcitabine) | viability (A549 cells [2]; the 3 conditions where either hydrogen and/or platinum is missing) | activity of the drug (A549 cells [2]; Fig. 7 and Fig. 8, 3 days, 5 ppm or 10 ppm platinum nanoparticles, four conditions with/without hydrogen and catalyst)
Cc1ccc(N)cc1 [p-toluidine] | neither mutagenic nor genotoxic |  |  |  | 
O=C(Nc1ccn([C@@H]2O[C@H](CO)[C@@H](O)C2(F)F)c(=O)n1)OCc1ccc([N+](=O)[O-])cc1 [gemcitabine prodrug, p-Nitrobenzyloxycarbonyl Gemcitabine] |  | about 5 orders of magnitude | slightly lower viability than the positive control with gemcitabine | A small decrease | only recovered if both the hydrogen and the platinum nanoparticles are present
